From US10077261B2, “Imidazolin-5-one derivative useful as FASN inhibitors for the treatment of cancer” (Janssen Pharmaceutica NV, priority 2012, dated 2018) come the findings set out here.

The test system of assay [1] is A2780 ovarian cells. As to the kind of experiment: A2780 ovarian cell proliferation assay in lipid reduced medium, with palmitate (MTT). The format is cell-based. To be noted: Homo sapiens, A2780, 96 h; read-out: pIC50 A2780 Ovarian Cell, With Palmitate (converted). As for the experimental part:
(§1) The biological assays described below correspond to comparative assays for ovarian cell proliferation. […] Compounds active in the absence of palmitate would not be expected to be active in the control.
(§2) 2500 cells were seeded in a 96-well clear well plate in 200 μL RPMI1640 with 10% Fetal Calf Serum (Hyclone), and incubated at 37° C., 5% CO2. Blanks were wells without cells. The next day the culture medium was aspirated and replaced by 160 μL culture medium with 10% Lipid-Reduced Serum (LRS, Hyclone). 20 μL test compound (at concentrations of 30 μM, 10 μM, 3 μM, 1 μM, 0.30 μM, 0.10 μM, 0.03 μM and 0.01 μM)/DMSO dilution followed by 20 μL palmitate-BSA solution were added to a final concentrations of 0.2% DMSO, 25 μM palmitate (Sigma, P0500, 10 mM stock solution in ethanol) 0.2% fatty-acid-free BSA, 0.25% ethanol. After 96 h incubation, an MTT assay was performed. The absorbance was measured at 544 nm on a SPECTRAMAX brand microplate reader (Molecular Devices).
A best fit curve was fitted by a minimum sum of squares method, plotting Controlmin versus test compound concentration.
(§3) Representative compounds of the present invention were tested according to the procedure as described in Biological Example 3 above, with results as listed in Table 8, below.

Assay [2] deals with A2780 ovarian cells. Kind of assay: A2780 ovarian cell proliferation assay in lipid reduced medium, without palmitate (MTT). Format: cell-based. To be noted: Homo sapiens, A2780, 96 h; read-out: pIC50 A2780 Ovarian Cell, Without Palmitate (converted). How it is done:
as §1
as §2, with “ethanol-BSA” for “palmitate-BSA”, “DMSO,” for “DMSO, 25 μM palmitate (Sigma, P0500, 10 mM stock solution in ethanol)”, “incubation” for “incubation,”
where mLC and mHC were the means of the low control wells and high control wells on the plate, after manual exclusion of outliers. A plot of Controlmin versus test compound concentration was fitted to a 4-parameter logistic curve using a non-linear least squares regression method.
as §3

Assay [3] concerns the target T1, hFASN enzyme (full length) (Homo sapiens, UniProt P49327).
T1 construct: 10 μL hFASN enzyme (full length, 300 ng, purified in house); made in house
As to the kind of experiment: Fatty Acid Synthase (FASN) inhibition scintillation proximity assay. The format is biochemical. To be noted: for inhibition at 10 µM: read-out: Human FASN % inhibition @ 10 μM, 10 μM test compound; for IC50: read-out: Human FASN pIC50 (converted). Summed up: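 Compounds at 0.01–30 μM were mixed with 300 ng purified full-length enzyme in 100 mM KH2PO4 pH 7.5, 1 mM DTT. Substrates ³H-acetyl-CoA and malonyl-CoA were then converted, and bead addition stopped the reaction. Signal was normalised to low and high plate controls and fitted by 4-parameter nonlinear regression.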

Broadly, the inhibition is the drop in the measured response relative to a control, in per cent.

Some results are limits rather than exact numbers.

T1 sequence (P49327 whole entry): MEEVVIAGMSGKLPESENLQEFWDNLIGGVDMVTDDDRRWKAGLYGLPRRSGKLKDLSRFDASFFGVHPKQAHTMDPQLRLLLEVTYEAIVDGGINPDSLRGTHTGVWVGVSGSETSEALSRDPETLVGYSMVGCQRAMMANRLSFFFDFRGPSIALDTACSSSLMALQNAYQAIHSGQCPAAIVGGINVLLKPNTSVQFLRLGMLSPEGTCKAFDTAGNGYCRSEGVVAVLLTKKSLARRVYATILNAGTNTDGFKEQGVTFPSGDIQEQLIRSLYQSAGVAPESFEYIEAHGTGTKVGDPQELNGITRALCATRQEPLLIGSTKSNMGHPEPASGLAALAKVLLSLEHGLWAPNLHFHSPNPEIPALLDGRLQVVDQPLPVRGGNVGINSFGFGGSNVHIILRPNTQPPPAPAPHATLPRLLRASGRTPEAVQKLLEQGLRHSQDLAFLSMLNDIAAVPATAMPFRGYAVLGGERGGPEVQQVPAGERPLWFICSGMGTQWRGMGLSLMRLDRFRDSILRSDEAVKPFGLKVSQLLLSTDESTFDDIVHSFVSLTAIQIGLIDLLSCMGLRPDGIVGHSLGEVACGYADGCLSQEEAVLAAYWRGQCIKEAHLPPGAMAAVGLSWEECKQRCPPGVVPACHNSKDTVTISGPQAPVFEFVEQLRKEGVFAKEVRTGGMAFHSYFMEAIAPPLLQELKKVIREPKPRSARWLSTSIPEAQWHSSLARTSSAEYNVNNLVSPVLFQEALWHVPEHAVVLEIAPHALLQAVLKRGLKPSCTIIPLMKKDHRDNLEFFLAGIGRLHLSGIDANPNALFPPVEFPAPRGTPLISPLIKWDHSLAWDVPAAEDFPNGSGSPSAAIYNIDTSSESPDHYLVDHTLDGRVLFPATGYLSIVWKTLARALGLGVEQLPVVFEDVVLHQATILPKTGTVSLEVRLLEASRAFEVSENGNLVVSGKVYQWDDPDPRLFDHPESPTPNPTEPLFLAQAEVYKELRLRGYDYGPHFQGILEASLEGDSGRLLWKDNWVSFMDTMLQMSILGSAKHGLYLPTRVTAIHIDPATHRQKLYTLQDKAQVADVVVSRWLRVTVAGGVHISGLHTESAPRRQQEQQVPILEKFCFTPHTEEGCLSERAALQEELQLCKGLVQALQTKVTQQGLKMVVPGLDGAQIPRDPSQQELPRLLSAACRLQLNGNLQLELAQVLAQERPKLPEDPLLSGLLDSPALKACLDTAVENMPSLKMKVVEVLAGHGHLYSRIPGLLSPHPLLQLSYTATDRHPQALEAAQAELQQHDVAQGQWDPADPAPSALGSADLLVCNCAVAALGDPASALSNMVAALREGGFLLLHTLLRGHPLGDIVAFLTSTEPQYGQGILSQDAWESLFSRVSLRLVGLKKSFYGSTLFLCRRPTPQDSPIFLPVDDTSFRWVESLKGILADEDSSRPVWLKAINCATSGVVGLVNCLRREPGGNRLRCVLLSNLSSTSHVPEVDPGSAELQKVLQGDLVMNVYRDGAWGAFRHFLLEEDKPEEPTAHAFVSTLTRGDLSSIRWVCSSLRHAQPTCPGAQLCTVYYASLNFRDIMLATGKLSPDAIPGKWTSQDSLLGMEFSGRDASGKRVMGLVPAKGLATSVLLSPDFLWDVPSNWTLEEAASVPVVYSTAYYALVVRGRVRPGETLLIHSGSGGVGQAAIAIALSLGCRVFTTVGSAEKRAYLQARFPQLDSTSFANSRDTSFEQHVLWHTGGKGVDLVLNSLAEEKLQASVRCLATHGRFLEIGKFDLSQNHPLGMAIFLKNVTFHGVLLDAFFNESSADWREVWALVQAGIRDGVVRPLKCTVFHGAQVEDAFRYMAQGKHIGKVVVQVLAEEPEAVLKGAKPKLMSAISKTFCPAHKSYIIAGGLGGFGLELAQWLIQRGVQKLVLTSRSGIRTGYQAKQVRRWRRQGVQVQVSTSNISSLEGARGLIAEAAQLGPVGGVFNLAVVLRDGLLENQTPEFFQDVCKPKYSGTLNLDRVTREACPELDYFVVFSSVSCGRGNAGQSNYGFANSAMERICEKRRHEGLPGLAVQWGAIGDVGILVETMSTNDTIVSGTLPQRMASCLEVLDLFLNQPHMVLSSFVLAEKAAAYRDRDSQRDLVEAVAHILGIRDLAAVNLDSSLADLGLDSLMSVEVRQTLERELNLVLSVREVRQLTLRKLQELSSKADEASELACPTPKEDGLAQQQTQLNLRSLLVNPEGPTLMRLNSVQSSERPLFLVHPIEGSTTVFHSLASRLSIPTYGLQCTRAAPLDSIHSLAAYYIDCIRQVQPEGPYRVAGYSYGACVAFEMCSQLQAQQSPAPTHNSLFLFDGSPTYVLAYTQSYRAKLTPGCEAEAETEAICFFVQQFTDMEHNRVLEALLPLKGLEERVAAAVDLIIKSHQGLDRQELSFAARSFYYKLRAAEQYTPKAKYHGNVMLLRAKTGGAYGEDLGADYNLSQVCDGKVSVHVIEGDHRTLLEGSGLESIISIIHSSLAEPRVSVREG

As for `Cn1ncc2cc(-c3ccc(C4=NC5(CC5)C(=O)N4CC4CCN(C(=O)C5CC5)CC4)cc3)ccc21` [compound 19, 6-{[1-(Cyclopropylcarbonyl)piperidin-4-yl]methyl}-5-[4-(1-methyl-1H-indazol-5-yl)phenyl]-4,6-diazaspiro[2.4]hept-4-en-7-one], the IC50 in assay [1] is over 6.17 µM; in assay [2], 4.68 µM.

As to `Cn1ncc2cc(-c3ccc(C4=NC5(CC5)C(=O)N4C[C@@H]4CCN(C(=O)C5CC5)C4)cc3)ccc21` [compound 28, 6-{[(3R)-1-(Cyclopropylcarbonyl)pyrrolidin-3-yl]methyl}-5-[4-(1-methyl-1H-indazol-5-yl)phenyl]-4,6-diazaspiro[2.4]hept-4-en-7-one], the values for the IC50 in assay [1] and in assay [2] were over 10 µM and 0.132 µM, respectively.

As for `Cn1ncc2cc(-c3ccc(C4=NC5(CCCC5)C(=O)N4C[C@@H]4CCN(C(=O)C5CC5)C4)cc3)ccc21` [compound 35, 3-{[(3R)-1-(Cyclopropylcarbonyl)pyrrolidin-3-yl]methyl}-2-[4-(1-methyl-1H-indazol-5-yl)phenyl]-1,3-diazaspiro[4.4]non-1-en-4-one], the results for the IC50 in assay [1] and in assay [2] were over 10 µM and 0.479 µM, respectively.

Turning to `O=C(C1CC1)N1CC[C@@H](CN2C(=O)C3(CC3)N=C2c2ccc(-c3ccc4cnccc4c3)cc2)C1` [compound 47, 6-{[(3R)-1-(Cyclopropylcarbonyl)pyrrolidin-3-yl]methyl}-5-(4-isoquinolin-6-ylphenyl)-4,6-diazaspiro[2.4]hept-4-en-7-one], the IC50 is over 10 µM in assay [1] and 0.00776 µM in assay [2].

For `O=C(C1CC1)N1CC[C@@H](CN2C(=O)C3(CC3)N=C2c2ccc(-c3ccc4occc4c3)cc2)C1` [compound 58, (R)-5-(4-(Benzofuran-5-yl)phenyl)-6-((1-(cyclopropanecarbonyl)pyrrolidin-3-yl)methyl)-4,6-diazaspiro[2.4]hept-4-en-7-one], the IC50 in assay [1] is over 10 µM; in assay [2] it was 0.339 µM.

As to `O=C(C1CC1)N1CC[C@@H](CN2C(=O)C3(CC3)N=C2c2ccc(-c3ccc(O)cc3)cc2)C1` [compound 64, 6-{[(3R)-1-(Cyclopropylcarbonyl)pyrrolidin-3-yl]methyl}-5-(4′-hydroxybiphenyl-4-yl)-4,6-diazaspiro[2.4]hept-4-en-7-one], the inhibition at 10 µM in assay [3] amounted to 92.9%. The IC50 in assay [3] was 0.708 µM; in assay [1], over 10 µM; in assay [2] it was 0.631 µM.

Turning to `O=C(C1CC1)N1CC[C@@H](CN2C(=O)C3(CC3)N=C2c2ccc(-c3ccc4scnc4c3)cc2)C1` [compound 71, 5-[4-(1,3-Benzothiazol-5-yl)phenyl]-6-{[(3R)-1-(cyclopropylcarbonyl)pyrrolidin-3-yl]methyl}-4,6-diazaspiro[2.4]hept-4-en-7-one], the values for the IC50 in assay [1] and in assay [2] were over 10 µM and 0.0363 µM, respectively.

For `O=C(C1CC1)N1CC(CN2C(=O)C3(CCCC3)N=C2c2ccc(-c3ccc4[nH]ccc4c3)cc2)C1` [compound 78, 3-{[1-(Cyclopropylcarbonyl)azetidin-3-yl]methyl}-2-[4-(1H-indol-5-yl)phenyl]-1,3-diazaspiro[4.4]non-1-en-4-one], the inhibition at 10 µM in assay [3] is 111%. Also, the IC50 in assay [1] is over 10 µM; in assay [2], 0.148 µM.

Consider `O=C(C1CC1)N1CC[C@@H](CN2C(=O)C3(CC3)N=C2c2ccc(-c3cccc(Cl)c3)cc2)C1` [compound 112, 5-(3′-Chlorobiphenyl-4-yl)-6-{[(3R)-1-(cyclopropylcarbonyl)pyrrolidin-3-yl]methyl}-4,6-diazaspiro[2.4]hept-4-en-7-one], for which the IC50 in assay [1] was over 10 µM; in assay [2], 1.02 µM.

Take `O=C(C1CC1)N1CC(CN2C(=O)C3(CC3)N=C2c2ccc(-c3ccc(-c4cnn(C5CCC5)c4)cc3)cc2F)C1` [compound 329, 5-(4′-(1-cyclobutyl-1H-pyrazol-4-yl)-3-fluoro-[1,1′-biphenyl]-4-yl)-6-((1-(cyclopropanecarbonyl)azetidin-3-yl)methyl)-4,6-diazaspiro[2.4]hept-4-en-7-one]: the figures for the IC50 in assay [1] and in assay [2] were 3.09 µM and 0.0141 µM, respectively.

As to `Cc1cc(-c2ccc(-c3cnn(C4CCC4)c3)cc2)ccc1C1=NC2(CC2)C(=O)N1CC1CN(C(=O)C2CC2)C1` [compound 330, 5-(4′-(1-cyclobutyl-1H-pyrazol-4-yl)-3-methyl-[1,1′-biphenyl]-4-yl)-6-((1-(cyclopropanecarbonyl)azetidin-3-yl)methyl)4,6-diazaspiro[2.4]hept-4-en-7-one], the IC50 was about 6.17 µM in assay [1] and 0.0324 µM in assay [2].

For the compound `O=C(C1CC1)N1CC[C@H](CN2C(=O)C3(CC3)N=C2c2ccc(-c3ccc4[nH]ncc4c3)cc2)C1` [compound 431, 6-{[(3S)-1-(Cyclopropylcarbonyl)pyrrolidin-3-yl]methyl}-5-[4-(1H-indazol-5-yl)phenyl]-4,6-diazaspiro[2.4]hept-4-en-7-one], the IC50 is over 10 µM in assay [1] and 0.204 µM in assay [2].

As to `Cc1cc(-c2ccc3c(c2)c(C#N)nn3C)ccc1C1=NC2(CC2)C(=O)N1CC1CN(C(=O)C2CC2)C1` [compound 836, 5-(4-(6-((1-(cyclopropanecarbonyl)azetidin-3-yl)methyl)-7-oxo-4,6-diazaspiro[2.4]hept-4-en-5-yl)-3-methylphenyl)-1-methyl-1H-indazole-3-carbonitrile], the IC50 in assay [1] was over 3.02 µM; in assay [2], 0.372 µM.

In the case of `O=C(N1CC(CN2C(=O)C3(CC3)N=C2c2ccc(-c3ccc4c(cnn4CCO)c3)cc2F)C1)C1(O)CC1` [compound 837, 5-(2-fluoro-4-(1-(2-hydroxyethyl)-1H-indazol-5-yl)phenyl)-6-((1-(1-hydroxycyclopropanecarbonyl)azetidin-3-yl)methyl)-4,6-diazaspiro[2.4]hept-4-en-7-one], the IC50 in assay [1] was over 3.02 µM; in assay [2], 1.23 µM.

Take `O=C(C1CC1)N1CC(CN2C(=O)C3(CC3)N=C2c2ccc(-c3ccc4ccc(=O)[nH]c4c3)cc2)C1` [compound 840]: the IC50 in assay [1] and in assay [2] was over 3.02 µM each time.

With `N#CCCn1cc2cc(-c3ccc(C4=NC5(CC5)C(=O)N4CC4CN(C(=O)C5CC5)C4)cc3)ccc2n1` [compound 842, 3-(5-(4-(6-((1-(cyclopropanecarbonyl)azetidin-3-yl)methyl)-7-oxo-4,6-diazaspiro[2.4]hept-4-en-5-yl)phenyl)-2H-indazol-2-yl)propanenitrile], the IC50 in assay [1] and in assay [2] was over 3.02 µM in each case.

Turning to `O=C(N1CC(CN2C(=O)C3(CCOCC3)N=C2c2ccc(-c3ccc4occc4c3)cc2)C1)C(F)(F)F` [compound 961, 2-(4-(benzofuran-5-yl)phenyl)-3-((1-(2,2,2-trifluoroacetyl)azetidin-3-yl)methyl)-8-oxa-1,3-diazaspiro[4.5]dec-1-en-4-one], in assay [3], the inhibition at 10 µM stood at 7% and the IC50 was over 10 µM.

Regarding `COC(=O)N1CC2(C1)N=C(c1ccc(-c3ccc4cccnc4c3)cc1)N(C[C@@H]1CCN(C(=O)c3nccs3)C1)C2=O` [compound 962, (R)-methyl 8-oxo-6-(4-(quinolin-7-yl)phenyl)-7-((1-(thiazole-2-carbonyl)pyrrolidin-3-yl)methyl)-2,5,7-triazaspiro[3.4]oct-5-ene-2-carboxylate], in assay [3], the inhibition at 10 µM amounted to 43% and the IC50 was over 10 µM.

On to `Cn1ncc2cc(-c3ccc(C4=NC5(CCN(C(=O)C(F)(F)F)CC5)C(=O)N4CC4CN(C(=O)C5CC5)C4)cc3)ccc21` [compound 964, 3-((1-(cyclopropanecarbonyl)azetidin-3-yl)methyl)-2-(4-(1-methyl-1H-indazol-5-yl)phenyl)-8-(2,2,2,-trifluoroacetyl)-1,3,8-triazaspiro[4.5]dec-1-en-4-one], for which, in assay [3], the inhibition at 10 µM turned out to be 41% and the IC50 was about 11 µM.
